Assay results as given in US20240309090A1, “MODULATION OF ANDROGEN SIGNALING TO INNATE IMMUNE KILLING OF PROSTATE CANCER” (Brown University, priority 2023, published 2024).
Entries after “also recorded” stand apart in the source; their conditions may differ.

Assays:
[1] = tested on: PCa cell lines (DU145, 22Rv1, LNCaP, PC3); assay: Western blot of apoptotic and antiapoptotic proteins in PCa cell lines; assay type: cell-based; conditions: for expression of Bcl-XL: 22Rv1; for expression of c-IAP2: DU145 cells and LNCaP; for Survivin levels: LNCaP; for expression of MCL-1: any cell lines
Procedure: We investigated the effects of ARi on PCa cells' expression of Bcl-2 proteins and cytokine secretion to assess a possible priming effect of treatment, making these cells susceptible to NK cell killing. Enzalutamide (5, 10, and 15 μM) and darolutamide (10, 20 μM) reduced the expression of the X-linked inhibitor of apoptosis (XIAP) in DU145, 22Rv1, and LNCaP cell lines (FIG. 14A-B). Western Blot analysis of apoptotic and antiapoptotic proteins on the PCa cell lines with darolutamide (10 and 20 μM) and enzalutamide ([…]) for 48 h. Treatment with ARi on the PCa cell lines evidenced changes in both pro and antiapoptotic proteins, irrespective of ARi sensitivity. The changes in protein expression were not similar in the PCa cell lines and cannot explain a single mechanism of tumor cell priming for NK cell killing.
Anti-apoptotic proteins and androgen receptor expression in prostate cancer cell lines and immune cells (NK-92) were examined using a western blot. A total of 1×10^5 cells were plated and incubated in a 6 or 12-well plate ([…] 229111 and 229105) for 24 hours to allow the cells to adhere (tumor cells). Treatment conditions were added after cell adhesion or in conjunction with NK cells when these were analyzed. Cells were harvested and lysed using RIPA buffer containing protease inhibitor (Cell Signaling Technology 9806S) and phosphatase inhibitor (PHOSS-RO Roche 4906845001). Denaturing sample buffer was added, and samples were boiled at 95° C. for 10 minutes and an equal amount of protein lysate (10-20 ug) was electrophoresed through 4-12% SDS-PAGE gels (Invitrogen) and then transferred to PVDF membranes. The membrane was blocked with 5% milk in 1×TTBS and incubated overnight with the appropriate primary antibody (Cell Signaling c-IAP2 58C7 Rabbit mAb #3130; Cell Signaling XIAP Antibody #2042; Cell Signaling Mcl-1 (D2W9E) Rabbit mAb #94296; Cell Signaling Survivin (71G4B7) Rabbit mAb; Cell Signaling Ran Antibody #4462; Cell Signaling PARP 9542T mAb; Cell Signaling Bcl-2 Antibody #2876; Cell Signaling Bcl-xL (54H6) Rabbit mAb; Sigma Aldrich Monoclonal Anti-B-Actin antibody #A5441; Cell Signaling Androgen Receptor (E3S4N) Rabbit mAb (Carboxy-terminal Antigen) #70317). The primary antibody membranes were incubated in the appropriate HRP-conjugated secondary antibody (either mouse, Thermo Scientific #31430, or rabbit, Thermo Scientific #31460) for two hours. The levels of antibody binding were detected using ECL western blotting detection reagent and the Syngene imaging system.

LNCaP = assay: Co-culture of GFP-expressing LNCaP with patient-derived NK cells; assay type: cell-based, human; conditions: GFP LNCaP, 1:1, 24 h; monalizumab in combination with enza and daro
From the text: To validate an additive effect of ARi and monalizumab enhancing NK cell cytotoxicity, we performed a co-culture assay with GFP-labeled PCa cell lines (including ARi-sensitive LNCaP and ARi-resistant PC3) and patient-derived NK cells. The NK cells were negatively selected from whole blood from patients with metastatic prostate cancer before initiation of androgen deprivation therapy. The addition of enzalutamide or darolutamide enhanced the cytotoxicity of NK cells, and the combination of ARi with monalizumab potentiated immune killing (FIG. 15C-D).
Prostate cancer cell lines were dyed with the blue CMAC live-cell dye (Thermo Fisher Scientific #C2110, per manufacturer protocol). Blue-fluorescent cancer cells were plated at a density of 10,000 cells per well of a 48-well plate. NK-92 cells were dyed with green CMFDA (Cayman Chemical Company #19583, per manufacturer protocol). Green-fluorescent NK-92 cells were added to the blue-fluorescent cancer cells at a 1:1 ratio. Enzalutamide (10 μM), darolutamide (20 μM), and 1 μM ethidium homodimer (EthD-1) were added at the same time as the NK cells. After 24 hours of co-culture, images of live cancer cells, live NK cells, and dead cells were taken using a fluorescent microscope. The co-culture experiments were run with internal control conditions and as a single treatment. Normalization was performed after analysis to take baseline death conditions into each experiment run. To optimize the high output of these experiments, a subset of co-cultures were performed using the ImageXpress® Micro Confocal High-Content Imaging. This analysis maintained the experiment conditions, drug concentrations, and the dyeing process. When GFP-labeled tumor cells were used for culture assays, they were added in a 1:1 ratio. Cell adhered over 24 h, and when patient-derived NK cells were added, a control well was trypsinized, and cells resuspended and counted to adjust a 1:1 ratio before treatment addition. The experiments with blocking antibodies were performed using the ImageXpress system. TRAIL blocking ab was purchased from Santa Cruz TRAIL Antibody (RIK-2): sc-56246, and IFN gamma blocking Monoclonal Antibody (NIB42, #6-7318-81) was purchased from Thermo Fisher. The blocking mAb was added when NK cells were combined with tumor cells.
NK cells were isolated from patients harboring metastatic castration-sensitive prostate cancer using the MojoSort™ Human NK Cell Isolation Kit (#480053). Patients signed informed consent for IRB-approved research protocol number 2055-13, allowing the collection of peripheral blood samples. […] The untouched NK cells (CD56+, CD3−) were collected, and the purity of isolation was determined by flow cytometry using anti-CD56 (BioLegend 362503). […]

[2] = DU145, 22Rv1, LNCaP, enzalutamide 5, 10, 15 μM, darolutamide 10, 20 μM, 48 h

**Q.** Which “expression of Bcl-XL” value [1] does the source give for `CNC(=O)c1ccc(N2C(=S)N(c3ccc(C#N)c(C(F)(F)F)c3)C(=O)C2(C)C)cc1F` [enzalutamide] here?
**A.** reduced

**Q.** What about the “expression of Bcl-XL” value ([1]; listed as Enzalutamide) of the same compound?
**A.** lower levels

**Q.** And the “expression of XIAP” value [1, 2]?
**A.** reduced levels

**Q.** What about the “expression of c-IAP2” value [1] of the same compound?
**A.** reduced

**Q.** What about the “expression of c-IAP2” value ([1]; listed as Enzalutamide) of the same compound?
**A.** reduced levels

**Q.** And the Survivin levels [1]?
**A.** decreased

**Q.** And the Survivin levels ([1]; listed as Enzalutamide)?
**A.** lower levels

**Q.** And the “expression of XIAP” value ([1]; PC3)?
**A.** did not change

**Q.** What about the “expression of MCL-1” value [1] of the same compound?
**A.** no significant change

**Q.** What about the “killing of PCa cells by patient-derived NK cells (in words)” value (LNCaP) of the same compound?
**A.** enhanced

**Q.** Which results are given for `CC(O)c1cc(C(=O)N[C@@H](C)Cn2ccc(-c3ccc(C#N)c(Cl)c3)n2)n[nH]1` (stereo partly drawn) [darolutamide]?
**A.** expression of Bcl-XL [1]: reduced; expression of Bcl-XL ([1]; listed as Darolutamide): lower levels; expression of XIAP [1, 2]: reduced; also recorded: more pronounced; expression of XIAP ([1]; DU145, 22Rv1, LNCaP, enzalutamide 5, 10, 15 μM, darolutamide 10, 20 μM, 48 h, listed as Darolutamide): reduced levels; expression of c-IAP2 [1]: reduced; expression of c-IAP2 ([1]; listed as Darolutamide): reduced levels; Survivin levels [1]: decreased; Survivin levels ([1]; listed as Darolutamide): lower levels; expression of XIAP ([1]; PC3): did not change; expression of MCL-1 [1]: no significant change; killing of PCa cells by patient-derived NK cells (in words) (LNCaP): enhanced
